Experimental findings from patent publication US20070043024A1, “Azacyclic compounds as inhibitors of sensory neurone specific channels” (priority 2003, published 2007) are described below.

The target of this test is T1, human Nav1.8 (hNav1.8) ion channel (Homo sapiens, UniProt Q9Y5Y9).
T1 construct: expressed in transfected cells
T1 sequence (Q9Y5Y9 whole entry): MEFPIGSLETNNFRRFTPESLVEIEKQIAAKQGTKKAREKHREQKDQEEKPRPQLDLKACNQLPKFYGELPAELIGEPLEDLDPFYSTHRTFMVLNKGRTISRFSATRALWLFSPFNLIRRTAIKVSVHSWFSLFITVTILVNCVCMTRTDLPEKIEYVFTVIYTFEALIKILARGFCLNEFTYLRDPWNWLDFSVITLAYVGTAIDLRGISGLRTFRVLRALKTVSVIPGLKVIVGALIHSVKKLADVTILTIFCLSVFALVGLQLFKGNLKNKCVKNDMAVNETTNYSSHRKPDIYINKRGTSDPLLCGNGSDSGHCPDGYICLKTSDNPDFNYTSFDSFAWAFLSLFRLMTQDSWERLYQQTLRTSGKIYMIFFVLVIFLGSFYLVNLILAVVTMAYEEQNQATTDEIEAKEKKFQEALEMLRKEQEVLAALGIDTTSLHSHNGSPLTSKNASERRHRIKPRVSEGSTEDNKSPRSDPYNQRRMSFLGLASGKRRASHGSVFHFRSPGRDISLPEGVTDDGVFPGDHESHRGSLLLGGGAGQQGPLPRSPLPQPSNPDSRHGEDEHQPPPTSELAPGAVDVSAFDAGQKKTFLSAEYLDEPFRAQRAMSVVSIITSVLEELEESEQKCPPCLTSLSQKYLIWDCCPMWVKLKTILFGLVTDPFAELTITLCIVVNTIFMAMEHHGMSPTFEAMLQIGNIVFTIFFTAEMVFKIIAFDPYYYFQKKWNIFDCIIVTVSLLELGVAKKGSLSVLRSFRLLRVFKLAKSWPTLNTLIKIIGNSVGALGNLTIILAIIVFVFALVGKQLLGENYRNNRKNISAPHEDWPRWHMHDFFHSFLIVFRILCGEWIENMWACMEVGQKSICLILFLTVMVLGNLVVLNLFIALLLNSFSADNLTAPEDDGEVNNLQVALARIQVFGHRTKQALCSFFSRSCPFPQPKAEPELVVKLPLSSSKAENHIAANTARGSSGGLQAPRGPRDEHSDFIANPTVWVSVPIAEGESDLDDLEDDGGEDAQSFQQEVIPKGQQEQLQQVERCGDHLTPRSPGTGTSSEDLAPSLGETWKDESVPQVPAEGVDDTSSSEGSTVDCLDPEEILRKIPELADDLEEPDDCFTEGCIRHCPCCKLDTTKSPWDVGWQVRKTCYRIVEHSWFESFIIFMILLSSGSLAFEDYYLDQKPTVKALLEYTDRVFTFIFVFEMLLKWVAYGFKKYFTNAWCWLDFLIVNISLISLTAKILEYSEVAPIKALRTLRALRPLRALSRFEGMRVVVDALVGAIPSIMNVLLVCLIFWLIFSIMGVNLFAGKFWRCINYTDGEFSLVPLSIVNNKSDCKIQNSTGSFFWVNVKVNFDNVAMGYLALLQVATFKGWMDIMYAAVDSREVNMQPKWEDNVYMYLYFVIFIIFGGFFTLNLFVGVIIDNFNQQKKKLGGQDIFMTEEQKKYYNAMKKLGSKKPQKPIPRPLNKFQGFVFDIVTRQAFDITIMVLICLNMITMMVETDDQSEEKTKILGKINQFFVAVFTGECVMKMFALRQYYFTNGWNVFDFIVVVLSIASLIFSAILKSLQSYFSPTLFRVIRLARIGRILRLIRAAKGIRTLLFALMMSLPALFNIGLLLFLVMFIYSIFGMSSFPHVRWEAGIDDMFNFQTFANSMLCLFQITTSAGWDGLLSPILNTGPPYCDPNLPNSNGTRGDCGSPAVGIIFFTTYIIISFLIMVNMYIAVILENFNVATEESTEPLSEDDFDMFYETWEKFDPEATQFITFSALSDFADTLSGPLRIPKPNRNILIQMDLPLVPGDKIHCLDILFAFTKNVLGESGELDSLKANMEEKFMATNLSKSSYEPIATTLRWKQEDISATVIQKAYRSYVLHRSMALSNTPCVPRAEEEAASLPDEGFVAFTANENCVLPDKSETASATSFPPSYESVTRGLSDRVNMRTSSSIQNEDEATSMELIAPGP
The experiment in a line: Inhibition of human Nav1.8 stably expressed in SH-SY-5Y cells (membrane potential dye fluorescence assay). It counts as cell-based. The conditions noted are these: Table 2 (compound numbers of the list in the description); SH-SY-5Y hNav1.8 cells, inhibition of membrane depolarisation, FLIPR membrane potential dye, 250 nM TTX, test concentration range 100 μM-0.05 μM; read-out: IC50.
As usually defined, the IC50 is the point on the concentration scale where inhibition reaches its midpoint. As to `COc1ccc(N(C(=O)CN2CCc3cccc(O)c3C2)c2ccc(OC)cc2)cc1` [Compound 183, 2-(8-Hydroxy-3,4-dihydro-1H-isoquinolin-2-yl)-N,N-bis-(4-methoxy-phenyl)-acetamide], the IC50 was 2260 nM. As for `COc1cccc2c1CN(CC(=O)Nc1ccccc1Oc1ccccc1)CC2` [Compound 184, 2-(8-Methoxy-3,4-dihydro-1H-isoquinolin-2-yl)-N-(2-phenoxy-phenyl)-acetamide], the figure is 10900 nM. As for `O=C(CN1CCc2cccc(O)c2C1)Nc1ccccc1Oc1ccccc1` [Compound 185, 2-(8-Hydroxy-3,4-dihydro-1H-isoquinolin-2-yl)-N-(2-phenoxy-phenyl)-acetamide], the IC50 is 1850 nM. Turning to `COc1cccc2c1CN(CC(=O)NNC(=O)N(c1ccccc1)c1ccccc1)CC2` [Compound 186, 1-[(8-Methoxy-3,4-dihydro-1H-isoquinolin-2-yl)-acetyl]-4,4-diphenylsemicarbazide], the IC50 was found to be 29100 nM. As for `COc1cccc2c1CN(CC(=O)N1CC(c3nnc(C)o3)Oc3ccccc31)CC2` (stereo not shown) [Compound 187, 2-(8-Methoxy-3,4-dihydro-1H-isoquinolin-2-yl)-1-[2-(5-methyl-[1,3,4]oxadiazol-2-yl)-2,3-dihydro-benzo[1,4]oxazin-4-yl]-ethanone], the IC50 turned out to be 19100 nM. For the compound `COc1cccc2c1CN(CC(=O)N(c1ccccc1O)c1ncccc1N)CC2` [Compound 188, N-(3-Amino-pyridin-2-yl)-N-(2-hydroxy-phenyl)-2-(8-methoxy-3,4-dihydro-1H-isoquinolin-2-yl)-acetamide], the IC50 is 12000 nM. For `COc1cccc2c1CN(CCC(=O)N1c3ccccc3Oc3ccccc31)CC2` [Compound 189, 3-(8-Methoxy-3,4-dihydro-1H-isoquinolin-2-yl)-1-phenoxazin-10-yl-propan-1-one], the IC50 was determined as 510 nM. Regarding `O=C(CCN1CCc2cccc(O)c2C1)N1c2ccccc2Oc2ccccc21` [Compound 190, 3-(8-Hydroxy-3,4-dihydro-1H-isoquinolin-2-yl)-1-phenoxazin-10-yl-propan-1-one], the IC50 came to 530 nM. Turning to `CS(=O)(=O)Oc1cccc2c1CN(CC(=O)N1c3ccccc3Oc3ccccc31)CC2` [Compound 191, Methanesulfonic acid 2-(2-oxo-2-phenoxazin-10-yl-ethyl)-1,2,3,4-tetrahydro-isoquinolin-8-yl ester], the IC50 worked out at 1270 nM. As for `COc1cccc2c1CN(CC(=O)N1CCOc3ccccc31)CC2` [Compound 192, 1-(2,3-Dihydro-benzo[1,4]oxazin-4-yl)-2-(8-methoxy-3,4-dihydro-1H-isoquinolin-2-yl)-ethanone], the IC50 was 9060 nM. As to `O=C(CN1CCc2ccc(O)cc2C1)N1c2ccccc2Oc2ccccc21` [Compound 193, 2-(7-Hydroxy-3,4-dihydro-1H-isoquinolin-2-yl)-1-phenoxazin-10-yl-ethanone], the IC50 is 3170 nM. Consider `O=C(CN1CCc2cc(O)ccc2C1)N1c2ccccc2Oc2ccccc21` [Compound 194, 2-(6-Hydroxy-3,4-dihydro-1H-isoquinolin-2-yl)-1-phenoxazin-10-yl-ethanone], for which the IC50 was found to be 2890 nM. With `O=C(CN1CCc2c(O)cccc2C1)N1c2ccccc2Oc2ccccc21` [Compound 195, 2-(5-Hydroxy-3,4-dihydro-1H-isoquinolin-2-yl)-1-phenoxazin-10-yl-ethanone], the IC50 was determined as 1850 nM. With `COc1cccc2c1CN(CC(=O)N1c3ccccc3Oc3ccccc31)C2` [Compound 196, 2-(4-Methoxy-1,3-dihydro-isoindol-2-yl)-1-phenoxazin-10-yl-ethanone], the IC50 worked out at 930 nM.

Take `CS(=O)(=O)N(c1cccc2c1CN(CC(=O)N1c3ccccc3Oc3ccccc31)CC2)S(C)(=O)=O` [Compound 197, N-Methanesulfonyl-N-[2-(2-oxo-2-phenoxazin-10-yl-ethyl)-1,2,3,4-tetrahydro-isoquinolin-8-yl]-methanesulfonamide]: the IC50 is 3830 nM.

With `CS(=O)(=O)Nc1cccc2c1CN(CC(=O)N1c3ccccc3Oc3ccccc31)CC2` [Compound 198, N-[2-(2-Oxo-2-phenoxazin-10-yl-ethyl)-1,2,3,4-tetrahydro-isoquinolin-8-yl]-methanesulfonamide], the IC50 stood at 1830 nM. Turning to `COc1cccc2c1CN(CC(=O)N1c3ccccc3Oc3cnn(C)c31)CC2` [Compound 199, 2-(8-Methoxy-3,4-dihydro-1H-isoquinolin-2-yl)-1-(1-methyl-1H-4-oxa-1,2,9-triaza-cyclopenta[b]naphthalen-9-yl)-ethanone], the IC50 stood at 8260 nM. Take `COc1cccc2c1CN(C(C)C(=O)N1c3ccccc3Oc3ccccc31)CC2` (stereo not shown) [Compound 200, 2-(8-Methoxy-3,4-dihydro-1H-isoquinolin-2-yl)-1-phenoxazin-10-yl-propan-1-one]: the IC50 came to 1660 nM. Take `O=C(NCCN1CCc2cccnc2C1)N1c2ccccc2Oc2ccccc21` [Compound 201, Phenoxazine-10-carboxylic acid [2-(5,8-dihydro-6H-[1,7]naphthyridin-7-yl)-ethyl]-amide]: the IC50 came to 6090 nM. For the compound `O=C(CN1Cc2cccc(O)c2C1)N1c2ccccc2Oc2ccccc21` [Compound 202, 2-(4-Hydroxy-1,3-dihydro-isoindol-2-yl)-1-phenoxazin-10-yl-ethanone], the IC50 stood at 680 nM. For `CS(=O)(=O)Oc1cccc2c1CN(CC(=O)N1c3ccccc3Oc3ccccc31)C2` [Compound 203, Methanesulfonic acid 2-(2-oxo-2-phenoxazin-10-yl-ethyl)-2,3-dihydro-1H-isoindol-4-yl ester], the IC50 is 1110 nM.

On to `COc1cccc2c1CN(CC(=O)n1c3ccccc3c3ccccc31)CC2` [Compound 204, 1-Carbazol-9-yl-2-(8-methoxy-3,4-dihydro-1H-isoquinolin-2-yl)-ethanone], for which the IC50 is 10700 nM. Regarding `COc1cccc2c1CN(CC(=O)N1c3ccccc3OCC1C)CC2` (stereo not shown) [Compound 205, 2-(8-Methoxy-3,4-dihydro-1H-isoquinolin-2-yl)-1-(3-methyl-2,3-dihydro-benzo[1,4]oxazin-4-yl)-ethanone], the IC50 is 4630 nM.

Turning to `COc1cccc2c1CN(CC(=O)N1c3ccccc3OCC1C(C)(C)C)CC2` (stereo not shown) [Compound 206, 1-(3-tert-Butyl-2,3-dihydro-benzo[1,4]oxazin-4-yl)-2-(8-methoxy-3,4-dihydro-1H-isoquinolin-2-yl)-ethanone], the IC50 was 1620 nM. On to `COc1cccc2c1CN(CC(=O)N1Cc3ccccc3Oc3ccccc31)CC2` [Compound 207, 1-(11H-Dibenzo[b,f][1,4]oxazepin-10-yl)-2-(8-methoxy-3,4-dihydro-1H-isoquinolin-2-yl)-ethanone], for which the IC50 is 940 nM.

As for `CCC1COc2ccccc2N1C(=O)CN1CCc2cccc(OC)c2C1` (stereo not shown) [Compound 208, 1-(3-Ethyl-2,3-dihydro-benzo[1,4]oxazin-4-yl)-2-(8-methoxy-3,4-dihydro-1H-isoquinolin-2-yl)-ethanone], the IC50 is 1680 nM. In the case of `CS(=O)(=O)Nc1cccc2c1CN(CC(=O)N1c3ccccc3Oc3ccccc31)C2` [Compound 210, N-[2-(2-Oxo-2-phenoxazin-10-yl-ethyl)-2,3-dihydro-1H-isoindol-4-yl]-methanesulfonamide], the IC50 turned out to be 3460 nM. `CC(C)(C)C1COc2ccccc2N1C(=O)CN1CCc2cccc(O)c2C1` (stereo not shown) [Compound 211, 1-(3-tert-Butyl-2,3-dihydro-benzo[1,4]oxazin-4-yl)-2-(8-hydroxy-3,4-dihydro-1H-isoquinolin-2-yl)-ethanone]: the IC50 is 3030 nM.
